Measurements: Sander's compilation of Henry's law constants (doi:10.1016/s0021-9673(00)91567-x)

Assay: Henry solubility constant Hcp at 298.15 K (mol/(m3 Pa))
Settings: reference: Przyjazny et al. (1983)

Row | Henry solubility constant Hcp | Compound
1 | 0.0022 | CCCCS [1-butanethiol]
2 | 0.0054 | CCSCC [diethyl sulfide]
3 | 0.0063 | CCSSCC [diethyl disulfide]
4 | 0.0028 | CCS [ethanethiol]
5 | 0.0033 | CCCSCCC [dipropyl sulfide]
6 | 0.0056 | CSC [dimethyl sulfide]

The remaining lines, values behind:

Row | Compound | Henry solubility constant Hcp
7 | CS [methanethiol] | 0.0039
8 | CCCS [1-propanethiol] | 0.0024
9 | Cc1cccs1 [2-methylthiophene] | 0.0041
10 | c1ccsc1 [thiophene] | 0.0044
11 | CC(C)SC(C)C [di-(2-propyl)-sulfide] | 0.003
